Source: patent US20260026506A1, “COMPOSITION FOR DISSOLVING AN OILY COMPOUND IN WATER” (AFFIX LABS OY, priority 2022, published 2026)

Columns and labels:
[1] = Dissolving DEET with the composition of the invention (Example 3, general procedure); format: physicochemical; conditions: composition of Table 3
Description: A general procedure to prepare the solution of an active compound in the composition of the invention is applied: • Deionized water was brought in a beaker equipped with a stirring bar and placed on a stirring plate. The cosolvent was added to the solution whilst stirring. Subsequently, the surfactant was added, and before the surfactant was dissolved also icaridin was added. Stirring is stopped when all components of the composition are dissolved.
The same test was applied to determine if the composition of the invention is also able to dissolve alternative water-insoluble compounds. In this experiment icaridin was switched for DEET and the general procedure was applied.

[2] = Dissolving icaridin in water with individual components only (Example 2, visual result); format: physicochemical; conditions: icaridin 5.0 wt.%
Description: In this experiment, it is tested if the combination of the cosolvent and the surfactant is required to dissolve icaridin or if individual components can also dissolve icaridin in water.
Deionized water was brought in a beaker equipped with a stirring bar and placed on a stirring plate. The (when applicable) cosolvent was added to the solution whilst stirring. Subsequently (when applicable) the surfactant was added, before this dissolved also (when applicable) icaridin was added. Stirring is stopped when everything is dissolved.

Amount dissolved in water by the composition of the invention [1] | Structure (SMILES) | Solubility of icaridin in water (conclusion from Table 2) [2]
5 wt. % | CCN(CC)C(=O)c1cccc(C)c1 [DEET, N,N-diethyl-m-toluamide] | 
 | CCC(C)OC(=O)N1CCCCC1CCO (centres unmarked) [icaridin] | only soluble in water using the combination cosolvent and surfactants
